The test system of experiment [1] is Listeria monocytogenes. The note with it: unit assumed; cited from earlier work.
Experiment [2] has as its system Haemophilus influenzae. Particulars: in µg/mL (unit assumed), cited from earlier work.
In experiment [3] the test system is Enterococcus spp. The note with it: unit assumed; cited from earlier work.
Experiment [4] has as its system Haemophilus ducreyi. The note with it: unit assumed; cited from earlier work.
In experiment [5] the test system is Campylobacter jejuni. The note with it: in µg/mL (unit assumed); cited from earlier work.
Experiment [6] relates to Borrelia burgdorferi. The note with it: unit assumed; cited from earlier work.
In experiment [7] the test system is Neisseria meningitidis. Particulars: cited from earlier work.
The subject of experiment [8] is Staphylococcus aureus. Particulars: cited from earlier work; for MIC50 / MIC90: unit assumed.
Experiment [9] relates to Neisseria gonorrhoeae. The note with it: in µg/mL (unit assumed), cited from earlier work.
Experiment [10] deals with Bordetella bronchiseptica. Particulars: cited from earlier work.
The subject of experiment [11] is Enterococcus faecium. The note with it: unit assumed; cited from earlier work.
The test system of experiment [12] is Bacteroides fragilis. The note with it: cited from earlier work.
In experiment [13] the test system is Streptococcus pyogenes. The note with it: in µg/mL (unit assumed); cited from earlier work.
The subject of experiment [14] is Branhamella (Moraxella) catarrhalis. Particulars: Branhamella (Moraxella) catarrhalis (β-lactamase producer); in µg/mL (unit assumed); cited from earlier work.
Experiment [15] relates to Bacillus spp. Particulars: cited from earlier work.
Experiment [16] has as its system Streptococcus agalactiae. Particulars: cited from earlier work.
Experiment [17] concerns Campylobacter pylori. Particulars: cited from earlier work.
Experiment [18] concerns Haemophilus parainfluenzae. The note with it: cited from earlier work.
Experiment [19] relates to Streptococcus spp. The note with it: unit assumed; cited from earlier work.
In experiment [20] the test system is Streptococcus pneumoniae. Particulars: in µg/mL (unit assumed); cited from earlier work.
Experiment [21] relates to Mycoplasma hominis. The note with it: cited from earlier work.
Experiment [22] concerns Mycoplasma pneumoniae. Particulars: cited from earlier work.
Experiment [23] concerns endotoxin from E. coli 0111:B4. The experiment in a line: Limulus amebocyte lysate assay, endotoxin spiked with serial dilutions. The experiment is classed as biochemical. The note with it: 30 ng E. coli endotoxin/well spiked with serial dilutions of ASL washings or supernatant from LPLUNC1 transfected 293 cells. Here is the method: FIG. 3. ASL and LPLUNC1 inhibit endotoxin activity in the Limulus amebocyte lysate assay. Endotoxin activity contrasted in control media (closed circles, 30 ng E. coli endotoxin/well), or 30 ng endotoxin samples spiked with serial dilutions of ASL washings (closed squares) or cell culture supernatant from LPLUNC1 transfected 293 cells (closed diamonds). 10 EU=1 ng endotoxin.
As confirmation of the endotoxin binding activities of ASL secretions and expressed LPLUNC1, an additional assay was performed. The Limulus amebocyte lystate assay (QCL-1000; BioWhittaker, Walkersville, Md.) was used to determine if these samples inhibited endotoxin activity in this extremely sensitive laboratory test. Lyophilized standard endotoxin from E. coli 0111:B4 in sterile water (chromogenic substrate) was spiked with serial dilutions of ASL washings, or supernatants from LPLUNC1 transfected cells. Endotoxin concentrations were determined by measuring the change in absorbance at 405 nm, as described previously (Thorne et al., 1999).

Experiment [24] concerns TLR4 mediated signaling in human umbilical vein endothelial cells (HUVECS). The experiment in a line: LOS stimulated IL-8 release from HUVECS. The experiment is classed as cell-based. The note with it: HUVECs treated overnight with LOS aggregates (3 ng/ml), soluble CD14 (250 ng/ml), LBP (100 ng/ml); ASL washings or supernatants of transfected 293 cells. An excerpt:
FIGS. 2A-2B. Effects of airway surface liquid (ASL), PLUNC, and LPLUNC1 on TLR4 mediated signaling in human umbilical vein endothelial cells (HUVECS). HUVECS in a 24 well dish were exposed to LOS from N. Meningitidis overnight in the presence of SCD14 and LBP. […] Control=media alone. […] Control cells were transfected with a plasmid expressing GFP. The transfection efficiency, based on GFP expression was >75%.
Alternatively, the inventors also consider the possibility that the properties of the proteins may be LBP-like and that their function may depend on the available concentrations. The ability of ASL to inhibit TLR4-mediated signaling in response to N. meningitis lipooligosaccharide (LOS) was tested in human umbilical vein endothelial cells (HUVECs) (Giardina et al., 2001). ASL secretions were recovered from the apical surface of primary cultures of human airway epithelia grown in serum free media by washing the surface with PBS. As show in FIG. 2A, HUVECs treated overnight with LOS aggregates (3 ng/ml) in the presence of soluble CD14 (250 ng/ml) and LBP (100 ng/ml) released significant quantities of IL-8 into the cell culture media. […] To determine whether PLUNC and/or LPLUNC1 have similar effects on TLR4 signaling, the inventors expressed their cDNAs in 293 cells grown in serum free media and harvested supernatants 48 hr following transfection.

In experiment [25] the test system is human peripheral blood mononuclear cells stimulated by N. meniningititis lipo-oligosaccharide (LOS). The experiment in a line: LOS stimulation of human peripheral blood mononuclear cells. The experiment is classed as cell-based. Particulars: baculovirus culture supernatants, N-terminal tagged proteins, 10 ng/ml N. meniningititis LOS.
The format of experiment [26] is binding, N. meningitidis. Particulars: recombinant LPLUNC1 C-terminal 6HIS incubated with 14C-LOS for 1 hr; versus Ad empty control supernatant.
Experiment [27] relates to LOS. The experiment in a line: Limulus amebocyte lysate assay, detected LOS. The experiment is classed as biochemical. Particulars: proteins from cell free in vitro translation (RTS) or HeLa supernatants, dilutions 1:1 to 1:8; 0.1 ng/ml LOS.
[28] abbreviates: Haemophilus influenzae (non β-lactamase producer).
The mark [29] stands for this setting: Haemophilus influenzae (penicillin resistant).
[30] abbreviates: Haemophilus influenzae (penicillin susceptible).
Where [31] appears, read: Haemophilus influenzae (β-lactamase producer).
Setting [32] is: Staphylococcus aureus (penicillin susceptible).
Setting [33] is: Neisseria gonorrhoeae (non β-lactamase producer).

The values that follow come from US20050192221A1, “Methods and compositions related to plunc polypeptides” (priority 2003, published 2005).

Converted amounts (≈) assume the structure as drawn. “And” between values parts separate entries of the source, which are not always exact repeats. Equal entries are not always repeated. “Also recorded” adds a separate entry of the source. Where two headings read alike, the source gives them in different places.

Turning to `CC[C@H]1OC(=O)[C@H](C)[C@@H](O[C@H]2C[C@@](C)(OC)[C@@H](O)[C@H](C)O2)[C@H](C)[C@@H](O[C@@H]2O[C@H](C)C[C@H](N(C)C)[C@H]2O)[C@](C)(O)C[C@@H](C)C(=O)[C@H](C)[C@@H](O)[C@]1(C)O` [ERYTHROMYCIN, erythromycin], the MIC50 in experiment [1] is 0.5 µg/mL (≈ 0.681 µM); in experiment [2] (setting [28]) it was 2 and 4; in [2] (setting [29]) it was 8; in experiment [2] (setting [30]), 8; in experiment [2] (setting [31]), 4 and 2; in [2] (Haemophilus influenzae) it was 2 and 1. The MIC50 is 2 µg/mL (≈ 2.73 µM) in [3]; 4 ng/mL (≈ 0.00545 µM) in experiment [4]; 0.03 µg/mL (≈ 0.0409 µM) in experiment [6]; 1 µg/mL (≈ 1.36 µM) in experiment [7] (unit assumed); 0.5 µg/mL (≈ 0.681 µM) in experiment [8] (Staphylococcus aureus (methicillin susceptible)); 0.5 µg/mL (≈ 0.681 µM) in [8] (setting [32]). Besides, the MIC50 in experiment [8] (Staphylococcus aureus) is 0.5 µg/mL (≈ 0.681 µM); in [10] (unit assumed) it was 8 µg/mL (≈ 10.9 µM); in [11], 1 µg/mL (≈ 1.36 µM); in experiment [12] (unit assumed), 1 µg/mL (≈ 1.36 µM); in experiment [13], 0.06 and 0.03; in experiment [16] (unit assumed), 0.03 µg/mL (≈ 0.0409 µM). Also, the MIC50 in [17] (unit assumed) was 0.5 µg/mL (≈ 0.681 µM); in [18] (unit assumed), 2 µg/mL (≈ 2.73 µM); in experiment [19], 0.03 µg/mL (≈ 0.0409 µM); in experiment [20] it was 0.06 and 0.03. Moreover, the MIC90 was 4 and 8 in experiment [2] (setting [28]); 16 in experiment [2] (setting [29]); 16 in experiment [2] (setting [30]); 8 and 4 in experiment [2] (setting [31]); 2 and 4 in experiment [2] (Haemophilus influenzae); 0.06 µg/mL (≈ 0.0818 µM) in experiment [4]. Also, the MIC90 in experiment [5] is 4 and 2; in experiment [6], 0.06 µg/mL (≈ 0.0818 µM); in [7] (unit assumed), 8 µg/mL (≈ 10.9 µM); in experiment [8] (setting [32]) it was 0.5 µg/mL (≈ 0.681 µM); in experiment [9] (setting [33]), 1 and 2; in [9] (Neisseria gonorrhoeae (β-lactamase producer)), 2 and 4. Further, the MIC90 in [9] (Neisseria gonorrhoeae) is 1; in experiment [10] (unit assumed), 32 µg/mL (≈ 43.6 µM); in experiment [12] (unit assumed) it was 8 µg/mL (≈ 10.9 µM); in experiment [15] (unit assumed) it was 2 µg/mL (≈ 2.73 µM); in experiment [16] (unit assumed), 0.03 µg/mL (≈ 0.0409 µM); in experiment [18] (unit assumed), 4 µg/mL (≈ 5.45 µM). Besides, the MIC90 in experiment [20] is 0.03 and 0.06. The “Range (of MIC)” value is 8-16 in experiment [2] (setting [29]); 0.25-16 in experiment [2] (setting [30]); 0.5-8 in [2] (Haemophilus influenzae); 0.5-8 in experiment [5]; 0.5-8 in experiment [7] (in µg/mL (unit assumed)); 0.03-2 and 0.015-4 in experiment [9] (setting [33]). For the same molecule, the “Range (of MIC)” value in experiment [9] (Neisseria gonorrhoeae) was 0.0075-8; in experiment [10] (in µg/mL (unit assumed)), 4-32; in experiment [12] (in µg/mL (unit assumed)), 0.25-16; in experiment [14], 0.06-1 and 0.03-0.25 and 0.06-8; in [15] (in µg/mL (unit assumed)), 0.03-2; in [16] (in µg/mL (unit assumed)) it was 0.03-0.25 and 0.015-0.06. The “Range (of MIC)” value in experiment [17] (in µg/mL (unit assumed)) is 0.25-16; in experiment [18] (in µg/mL (unit assumed)), 0.5-8; in experiment [20], 0.03-0.25 and 0.015-0.06 and 0.015-0.25.

As to `CCC[C@@H]1C[C@@H](C(=O)N[C@@H]([C@H]2O[C@H](SC)[C@H](O)[C@@H](O)[C@H]2O)[C@@H](C)O)N(C)C1` [LINCOMYCIN, lincomycin], the “Range (of MIC)” value in experiment [8] (Staphylococcus aureus, in µg/mL (unit assumed)) was 0.5-512; in [21] (in µg/mL (unit assumed)) it was 0.5-16; in experiment [22] (in µg/mL (unit assumed)) it was 2-32. The MIC50 was 1 µg/mL (≈ 2.46 µM) in [8] (Staphylococcus aureus), 2 µg/mL (≈ 4.92 µM) in experiment [21] (unit assumed) and 8 µg/mL (≈ 19.7 µM) in experiment [22] (unit assumed). For the same molecule, the MIC90 is 1 µg/mL (≈ 2.46 µM) in experiment [8] (Staphylococcus aureus), 4 µg/mL (≈ 9.84 µM) in [21] (unit assumed) and 32 µg/mL (≈ 78.7 µM) in experiment [22] (unit assumed).

B1: LPLUNC1: human long PLUNC protein, 484 amino acids; tested as recombinant culture supernatant, in vitro translation product or 6HIS tagged protein (protein, UniProt Q8TDL5 22-484, looked up)
BPI fold-containing family B …: TLSPTAVLILGPKVIKEKLTQELKDHNATSILQQLPLLSAMREKPAGGIPVLGSLVNTVLKHIIWLKVITANILQLQVKPSANDQELLVKIPLDMVAGFNTPLVKTIVEFHMTTEAQATIRMDTSASGPTRLVLSDCATSHGSLRIQLLHKLSFLVNALAKQVMNLLVPSLPNLVKNQLCPVIEASFNGMYADLLQLVKVPISLSIDRLEFDLLYPAIKGDTIQLYLGAKLLDSQGKVTKWFNNSAASLTMPTLDNIPFSLIVSQDVVKAAVAAVLSPEEFMVLLDSVLPESAHRLKSSIGLINEKAADKLGSTQIVKILTQDTPEFFIDQGHAKVAQLIVLEVFPSSEALRPLFTLGIEASSEAQFYTKGDQLILNLNNISSDRIQLMNSGIGWFQPDVLKNIITEIIHSILLPNQNGKLRSGVPVSLVKALGFEAAESSLTKDALVLTPASLWKPSSPVSQ
With B1, in experiment [23], the “inhibition of endotoxin activity” value is listed as “inhibited endotoxin activity in a dose dependent fashion”. The “effect on LOS stimulated IL-8 release from HUVECS” value in experiment [24] was “dampened IL-8 secretion”. Moreover, the “effect on responsiveness of PBMC to LOS stimulation” value in [25] is on record as “BPI-like inhibitory effects; also recorded: dampened the proinflammatory effect of LOS”. In addition, in experiment [26], the “14C-LOS recovered with nickel resin” value is recorded as “Significantly more LOS was recovered”. Moreover, in experiment [27], the “detectable level of LOS” value was “dose-dependent decrease in detected LOS”.

B2: PLUNC: human palate, lung, and nasal epithelium clone protein, 256 amino acids; tested as recombinant culture supernatant or in vitro translation product (protein, UniProt Q9NP55 20-256, looked up)
BPI fold-containing family A …: QFGGLPVPLDQTLPLNVNPALPLSPTGLAGSLTNALSNGLLSGGLLGILENLPLLDILKPGGGTSGGLLGGLLGKVTSVIPGLNNIIDIKVTDPQLLELGLVQSPDGHRLYVTIPLGIKLQVNTPLVGASLLRLAVKLDITAEILAVRDKQERIHLVLGDCTHSPGSLQISLLDGLGPLPIQGLLDSLTGILNKVLPELVQGNVCPLVNEVLRGLDITLVHDIVNMLIHGLQFVIKV
For B2, the “effect on LOS stimulated IL-8 release from HUVECS” value in experiment [24] is “dampened IL-8 secretion”. Besides, the “effect on responsiveness of PBMC to LOS stimulation” value in [25] is recorded as “LBP-like pro-inflammatory activity”; in experiment [25] (listed as SPLUNC1) it was “enhanced the LOS signaling”. Further, in [27], the “detectable level of LOS” value was “dose-dependent decrease in detected LOS”.
